Measured values published in patent publication US20240208992A1, “MACROCYCLES AS CFTR MODULATORS” (Idorsia Pharmaceuticals Ltd, priority 2021, published 2024).

Target: human F508del-CFTR (Homo sapiens, UniProt P13569, DEL508-508)
Test: F508del-CFTR cell surface expression (corrector activity), DiscoveRx ß-galactosidase complementation chemiluminescence assay in recombinant U2OS cell line;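 note: U2OS cells co-expressing ProLink-tagged F508del-CFTR and a membrane-anchored enzyme acceptor, where more surface CFTR restores β-galactosidase activity measured by chemiluminescence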
Settings: for EC50: EC50, F508del-CFTR cell surface expression; for Emax: U2OS
[1] = U2OS cells, 16h compound incubation, geomean values
[2] = in relation to Emax of corrector lumacaftor (=100%), arithmetic mean values
[3] = U2OS cell line, 16h compound incubation, geomean values
[4] = in relation to the Emax of the corrector lumacaftor (=100%), U2OS cell line, 16h compound incubation, arithmetic mean values

Sequence of human F508del-CFTR (P13569 with tags, fused parts or gaps DEL508-508): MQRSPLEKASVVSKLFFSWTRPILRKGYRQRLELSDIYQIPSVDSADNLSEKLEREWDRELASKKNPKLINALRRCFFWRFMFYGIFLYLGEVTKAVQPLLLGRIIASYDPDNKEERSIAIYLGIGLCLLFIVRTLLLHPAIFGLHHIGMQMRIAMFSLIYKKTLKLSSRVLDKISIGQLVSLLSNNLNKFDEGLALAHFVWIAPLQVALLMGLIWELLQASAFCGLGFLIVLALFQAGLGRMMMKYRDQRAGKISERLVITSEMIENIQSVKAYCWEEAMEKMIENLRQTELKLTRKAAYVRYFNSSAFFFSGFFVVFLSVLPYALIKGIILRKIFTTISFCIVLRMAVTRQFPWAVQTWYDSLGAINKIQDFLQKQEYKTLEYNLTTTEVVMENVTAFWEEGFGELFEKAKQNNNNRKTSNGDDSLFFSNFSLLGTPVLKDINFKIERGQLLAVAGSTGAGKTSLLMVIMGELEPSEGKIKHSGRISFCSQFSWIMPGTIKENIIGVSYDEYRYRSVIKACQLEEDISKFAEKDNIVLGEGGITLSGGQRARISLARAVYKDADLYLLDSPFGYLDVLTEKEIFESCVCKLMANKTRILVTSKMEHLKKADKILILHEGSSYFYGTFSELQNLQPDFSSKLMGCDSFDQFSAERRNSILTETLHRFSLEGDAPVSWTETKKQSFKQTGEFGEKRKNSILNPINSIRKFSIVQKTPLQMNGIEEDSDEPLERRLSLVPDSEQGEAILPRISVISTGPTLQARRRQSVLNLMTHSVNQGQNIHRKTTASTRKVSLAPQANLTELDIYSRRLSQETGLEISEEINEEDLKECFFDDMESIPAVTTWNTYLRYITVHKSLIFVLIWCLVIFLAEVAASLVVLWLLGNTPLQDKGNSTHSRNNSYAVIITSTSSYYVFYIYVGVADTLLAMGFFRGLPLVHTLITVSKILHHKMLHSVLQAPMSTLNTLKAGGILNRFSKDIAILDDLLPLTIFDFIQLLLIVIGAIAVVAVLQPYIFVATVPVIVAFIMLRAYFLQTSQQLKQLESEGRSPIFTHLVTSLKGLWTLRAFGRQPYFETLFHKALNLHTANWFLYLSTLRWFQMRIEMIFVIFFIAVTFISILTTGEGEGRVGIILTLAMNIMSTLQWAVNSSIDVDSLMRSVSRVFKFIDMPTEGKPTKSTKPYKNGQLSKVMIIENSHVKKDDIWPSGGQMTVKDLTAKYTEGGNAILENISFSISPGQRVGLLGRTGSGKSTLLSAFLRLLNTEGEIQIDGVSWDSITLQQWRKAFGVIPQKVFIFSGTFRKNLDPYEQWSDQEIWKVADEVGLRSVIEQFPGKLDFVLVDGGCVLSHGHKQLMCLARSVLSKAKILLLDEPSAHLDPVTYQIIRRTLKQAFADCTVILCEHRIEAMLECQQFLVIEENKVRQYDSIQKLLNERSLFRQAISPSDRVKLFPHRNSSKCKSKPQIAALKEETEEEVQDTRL

| Structure (SMILES) | EC50 [1] [nM] | Emax [2] [%] | EC50 [3] [nM] | Emax [4] [%] | further results |
| --- | --- | --- | --- | --- | --- |
| COc1nccc2c1C(=O)N[C@H](C(=O)NCCc1cc(C3CC3)no1)CC(=O)N(C)[C@@H](CC(C)C)C(=O)N1CC[C@H](c3ccccc3)C[C@H]1C(=O)N[C@H](Cc1ccccc1)CO2 [Example 670, (7S,11S,17aS,20R)-20-benzyl-N-(2-(3-cyclopropylisoxazol-5-yl)ethyl)-11-isobutyl-4-methoxy-10-methyl-5,9,12,18-tetraoxo-16-phenyl-5,6,7,8,9,10,11,12,15,16,17,17a,18,19,20,21-hexadecahydro-14H-dipyrido[2,1-f:3′,4′-p][1]oxa[4,7,10,14]tetraazacycloheptadecine-7-carboxamide] | 353 | 167 | – | – | – |
| CC(C)C[C@H]1C(=O)N(CCC2CCCCC2)CC(=O)N[C@H](Cc2ccccc2)COc2ccc3c(c2C(=O)N[C@H](C(=O)NCCc2ccc4c(c2)OCO4)CC(=O)N1C)OCO3 [Example 345, (8R,14S,18S)-N-(2-(benzo[d][1,3]dioxol-5-yl)ethyl)-8-benzyl-12-(2-cyclohexylethyl)-14-isobutyl-15-methyl-10,13,16,20-tetraoxo-7,8,9,10,11,12,13,14,15,16,17,18,19,20-tetradecahydro-[1,3]dioxolo[4′,5′:5,6]benzo[1,2-p][1]oxa[4,7,10,14]tetraazacycloheptadecine-18-carboxamide] | – | – | 95 | 268 | – |
| Cc1nc2ccc3c(c2o1)C(=O)N[C@H](C(=O)NCCc1cccc(OC(F)F)c1)CC(=O)N(C)[C@@H](CC(C)C)C(=O)N1CCOC[C@@H]1C(=O)N[C@H](Cc1ccccc1)CO3 [Example 625] | 781 | 186 | – | – | – |
| CC(C)C[C@H]1C(=O)N2CCOC[C@@H]2C(=O)N[C@H](Cc2ccccc2)COc2ccc3ccccc3c2C(=O)N[C@H](C(=O)NCCc2noc3ccccc23)CC(=O)N1C [Example 38, (4aR,7R,18S,22S)-N-(2-(benzo[d]isoxazol-3-yl)ethyl)-7-benzyl-22-isobutyl-21-methyl-5,16,20,23-tetraoxo-1,2,4,4a,5,6,7,8,16,17,18,19,20,21,22,23-hexadecahydronaphtho[1,2-p][1,4]oxazino[3,4-f][1]oxa[4,7,10,14]tetraazacycloheptadecine-18-carboxamide] | – | – | 299 | 191 | – |
| COc1cccc(CCNC(=O)[C@@H]2CC(=O)N(C)[C@@H](CC3CCCC3)C(=O)N(CCC3CCCCC3)CC(=O)N[C@H](Cc3ccccc3)COc3ccc4ccccc4c3C(=O)N2)c1 (racemic) [Example 300, (3RS,7S,13R)-13-benzyl-9-(2-cyclohexylethyl)-7-(cyclopentylmethyl)-N-(3-methoxyphenethyl)-6-methyl-1,5,8,11-tetraoxo-1,2,3,4,5,6,7,8,9,10,11,12,13,14-tetradecahydronaphtho[1,2-p][1]oxa[4,7,10,14]tetraazacycloheptadecine-3-carboxamide] | – | – | – | 210 | – |
| CC(C)C[C@H]1C(=O)N(C)[C@H](Cc2nc(C(F)(F)F)no2)C(=O)N[C@H](Cc2ccccc2)COc2ccc3ncc(F)cc3c2C(=O)N[C@H](C(=O)NCCn2nc3ccccc3n2)CC(=O)N1C [Example 937, (3S,7S,10R,13R)-N-(2-(2H-benzo[d][1,2,3]triazol-2-yl)ethyl)-13-benzyl-20-fluoro-7-isobutyl-6,9-dimethyl-1,5,8,11-tetraoxo-10-((3-(trifluoromethyl)-1,2,4-oxadiazol-5-yl)methyl)-1,2,3,4,5,6,7,8,9,10,11,12,13,14-tetradecahydro-[1]oxa[4,7,10,14]tetraazacycloheptadecino[16,17-f]quinoline-3-carboxamide] | – | – | – | – | EC50 (U2OS cells, 16h compound incubation, geomean of several measurements): 59 nM; Emax (in relation to the Emax of the corrector lumacaftor (=100%), U2OS cells, 16h compound incubation, arithmetic mean): 460% |
| COc1cc(CCNC(=O)[C@@H]2CC(=O)N(C)[C@@H](CC(C)C)C(=O)N(CCC3CCCCC3)CC(=O)N[C@H](Cc3ccccc3)COc3cccc(OC)c3C(=O)N2)cc(OC)c1 [Example 205, (3R,9S,13S)-3-benzyl-7-(2-cyclohexylethyl)-N-(3,5-dimethoxyphenethyl)-9-isobutyl-16-methoxy-10-methyl-5,8,11,15-tetraoxo-2,3,4,5,6,7,8,9,10,11,12,13,14,15-tetradecahydrobenzo[p][1]oxa[4,7,10,14]tetraazacycloheptadecine-13-carboxamide] | – | – | 175 | 229 | – |
| Cc1cc(CCNC(=O)[C@@H]2CC(=O)N(C)[C@@H](CC3CCCC3)C(=O)N3CCCC[C@H]3C(=O)N[C@H](Cc3ccccc3)COc3ccc4c(C)noc4c3C(=O)N2)on1 [Example 631, (8S,12S,18aS,21R)-21-benzyl-12-(cyclopentylmethyl)-3,11-dimethyl-N-(2-(3-methylisoxazol-5-yl)ethyl)-6,10,13,19-tetraoxo-6,7,8,9,10,11,12,13,16,17,18,18a,19,20,21,22-hexadecahydro-15H-isoxazolo[4′,5′:5,6]benzo[1,2-p]pyrido[2,1-f][1]oxa[4,7,10,14]tetraazacycloheptadecine-8-carboxamide] | 898 | 133 | – | – | – |

Continued, in another order:

| EC50 [1] [nM] | Emax [2] [%] | EC50 [3] [nM] | Emax [4] [%] | Structure (SMILES) | further results |
| --- | --- | --- | --- | --- | --- |
| 264 | 181 | – | – | CC(C)C[C@H]1C(=O)N(C)C2(CC2)C(=O)N[C@H](Cc2ccccc2)COc2cnc3ccccc3c2C(=O)N[C@H](C(=O)NCCc2nc(Cc3ccccc3)no2)CC(=O)N1C [Example 763, (3'S,7'S,13′R)-13′-Benzyl-N-(2-(3-benzyl-1,2,4-oxadiazol-5-yl)ethyl)-7′-isobutyl-6′,9′-dimethyl-1′,5′,8′,11′-tetraoxo-2′,3′,4′,5′,6′,7′,8′,9′,11′,12′,13′,14′-dodecahydro-1′H-spiro[cyclopropane-1,10′-[1]oxa[4,7,10,14]tetraazacycloheptadecino[17,16-c]quinoline]-3′-carboxamide] | – |
| – | – | 270 | 339 | Cc1cc(CCNC(=O)[C@@H]2CC(=O)N(C)[C@@H](CC(C)C)C(=O)N(C)C3(CC3)C(=O)N[C@H](Cc3ccccc3)COc3cnc4ccc(F)cc4c3C(=O)N2)on1 [Example 147, (3′S,7′S,13′R)-13′-benzyl-20′-fluoro-7′-isobutyl-6′,9′-dimethyl-N-(2-(3-methylisoxazol-5-yl)ethyl)-1′,5′,8′,11′-tetraoxo-2′,3′,4′,5′,6′,7′,8′,9′,11′,12′,13′,14′-dodecahydro-1′H-spiro[cyclopropane-1,10′-[1]oxa[4,7,10,14]tetraazacycloheptadecino[17,16-c]quinoline]-3′-carboxamide] | – |
| 374 | 315 | – | – | CC(C)C[C@H]1C(=O)N(C)C2(CC2)C(=O)N[C@H](Cc2ccccc2)COc2cnc3ccccc3c2C(=O)N[C@H](C(=O)NCCc2nc(CC3CC3)no2)CC(=O)N1C [Example 764, (3'S,7'S,13′R)-13′-Benzyl-N-(2-(3-(cyclopropylmethyl)-1,2,4-oxadiazol-5-yl)ethyl)-7′-isobutyl-6′,9′-dimethyl-1′,5′,8′,11′-tetraoxo-2′,3′,4′,5′,6′,7′,8′,9′,11′,12′,13′,14′-dodecahydro-1′H-spiro[cyclopropane-1,10′-[1]oxa[4,7,10,14]tetraazacycloheptadecino[17,16-c]quinoline]-3′-carboxamide] | – |
| – | – | 864 | 308 | CC(C)C[C@H]1C(=O)N2CCOC[C@@H]2C(=O)N[C@H](Cc2ccccc2)COc2cnc3ccccc3c2C(=O)N[C@H](C(=O)NCCc2cc(C3CC3)on2)CC(=O)N1C [Example 106, (9S,13S,19aR,22R)-22-benzyl-N-(2-(5-cyclopropylisoxazol-3-yl)ethyl)-13-isobutyl-12-methyl-7,11,14,20-tetraoxo-7,8,9,10,11,12,13,14,16,17,19,19a,20,21,22,23-hexadecahydro-[1,4]oxazino[3′,4′:6,7][1]oxa[4,7,10,14]tetraazacycloheptadecino[17,16-c]quinoline-9-carboxamide] | – |
| – | – | 247 | 318 | Cc1noc(CCNC(=O)[C@@H]2CC(=O)N(C)[C@@H](CC(C)C)C(=O)N(C)C3(CC3)C(=O)N[C@H](Cc3ccccc3)COc3cnc4ccc(F)cc4c3C(=O)N2)n1 [Example 146, (3′S,7′S,13′R)-13′-benzyl-20′-fluoro-7′-isobutyl-6′,9′-dimethyl-N-(2-(3-methyl-1,2,4-oxadiazol-5-yl)ethyl)-1′,5′,8′,11′-tetraoxo-2′,3′,4′,5′,6′,7′,8′,9′,11′,12′,13′,14′-dodecahydro-1′H-spiro[cyclopropane-1,10′-[1]oxa[4,7,10,14]tetraazacycloheptadecino[17,16-c]quinoline]-3′-carboxamide] | – |
| 300 | 323 | – | – | COc1noc(CCNC(=O)[C@@H]2CC(=O)N(C)[C@@H](CC(C)C)C(=O)N(C)[C@H](C)C(=O)N[C@H](Cc3ccccc3)COc3ccnc(OC)c3C(=O)N2)c1F [Example 765, (3R,6R,9S,13S)-3-benzyl-N-(2-(4-fluoro-3-methoxyisoxazol-5-yl)ethyl)-9-isobutyl-16-methoxy-6,7,10-trimethyl-5,8,11,15-tetraoxo-2,3,4,5,6,7,8,9,10,11,12,13,14,15-tetradecahydropyrido[3,4-p][1]oxa[4,7,10,14]tetraazacycloheptadecine-13-carboxamide] | – |
| – | – | 823 | 131 | Cc1cnc(CCNC(=O)[C@@H]2CC(=O)N(C)[C@@H](CC(C)C)C(=O)N3CCCC[C@@H]3C(=O)N[C@H](Cc3ccccc3)COc3ccc4ncn(C)c4c3C(=O)N2)s1 (racemic) [Example 24, (8RS,12S,18aR,21R)-21-benzyl-12-isobutyl-5,11-dimethyl-N-(2-(5-methylthiazol-2-yl)ethyl)-6,10,13,19-tetraoxo-6,7,8,9,10,11,12,13,16,17,18,18a,19,20,21,22-hexadecahydro-5H,15H-imidazo[4′,5′:5,6]benzo[1,2-p]pyrido[2,1-f][1]oxa[4,7,10,14]tetraazacycloheptadecine-8-carboxamide] | – |
